Data as given in US20050026849A1, “Water soluble formulations of digitalis glycosides for treating cell-proliferative and other diseases” (priority 2003, published 2005).

Legend:
[1] = Solubilization in aqueous hydroxypropyl-cyclodextrin solution; assay type: physicochemical
Description: (§1) 100 milligrams of oleandrin was weighed and placed in a 5 mL scintillation tube. 1.5 mL of absolute ethanol was added to the tube and shaken until the oleandrin was completely dissolved. 5 grams of pyrogen free hydroxypropyl-β-cyclodextrin (sold by, Sigma-Aldrich, Inc., St. Louis, Mo., USA) was weighed on an analytical scale and placed in a graduated cylinder. Water was added with shaking until the volume reached 90 ml. The above ethanolic solution of oleandrin was added to the aqueous solution containing hydroxypropyl-β-cyclodextrin with stirring. A clear solution was obtained. Water was added to the clear solution to make the total volume to 100 mL. Thus, 1 mg oleandrin was effectively solubilized in 1 ml of 5% solution of hydroxypropyl-β-cyclodextrin. The solution was sterile-filtered through a 0.22 μm filter. The suspension was frozen below −40° C. and lyophilized. The lyophilized cake was reconstituted with sterile water for injection prior to further use.
The previous experiment was repeated using a 2% solution of hydroxypropyl-β-cyclodextrin prepared as in Example 1. 100 mg of oleandrin was dissolved in 100 mL of water containing 2.5 grams of hydroxypropyl-β-cyclodextrin. The solution was sterile-filtered through a 0.22 μm filter. The solution was frozen below −40° C. and lyophilized. The lyophilized cake was reconstituted with sterile water for injection prior to further use.
The experiment in example 1 was repeated using a 100 mg of Odoroside-A instead of oleandrin. 100 mg of Odoroside-A was dissolved in 5 grams of hydroxypropyl-β-cyclodextrin in 100 mL of water. The solution was sterile-filtered through a 0.22 μm filter. The solution was frozen below −40° C. and lyophilized. The lyophilized cake was reconstituted with sterile water for injection prior to further use.
as §1, with “5mL” for “5 mL”, “1-2” for “1.5”, “2.5” for “5”, “hydroxypropyl-γ-cyclodextrin” for “hydroxypropyl-β-cyclodextrin”, “2.5%” for “5%”, “hydroxypropyl-γ-cyclodextrin.” for “hydroxypropyl-β-cyclodextrin.”
as §1, with “of Proscillaridin-A” for “of oleandrin”, “tube. 1-2” for “tube. 1.5”, “the Proscillaridin-A” for “the oleandrin”, “dissolved. 2” for “dissolved. 5”, “mg Proscillaridin-A” for “mg oleandrin”, “of 2%” for “of 5%”
The previous experiment was repeated using a 5% solution of hydroxypropyl-β-cyclodextrin prepared as in Example 5. […]

[2] = tested on: androgen-independent human prostate cancer cell lines; conditions: in vitro; cited from earlier work
[3] = tested on: primary cultures of tumor cells from patients and a human cell line panel; conditions: cited from earlier work
[4] = oral tablet containing 0.25 mg, humans; cited from earlier work
[5] = tested on: various cancer cell lines; conditions: cited from earlier work
[6] = tested on: different human malignant cell lines; conditions: non-toxic concentrations; cited from earlier work
[7] = rapidly dissolving γ-cyclodextrin complex (molar ratio 1:4), oral, dogs; cited from earlier work
[8] = Oleandrin stirred and shaken with water; assay type: physicochemical; conditions: 10 mg stirred and shaken with 10 ml of water, after 20 minutes
Description: 10 milligrams (mg) of oleandrin was stirred and shaken with 10 ml of water in a test tube.

AP-1 = conditions: induced by TNF and other agents; cited from earlier work
[9] = in vivo; cited from earlier work
human cancer cells = conditions: cited from earlier work
NF-κB = conditions: cited from earlier work
[10] = tested on: FGF-2 release from PC3 cells; conditions: 0.1 ng/mL; cited from earlier work
[11] = tested on: FGF-2 release from DU145 cells; conditions: 0.1 ng/mL; cited from earlier work
[12] = in 100 mL of water containing 5 grams of hydroxypropyl-β-cyclodextrin
[13] = in 1 ml of 2.5% solution of hydroxypropyl-γ-cyclodextrin
[14] = in 50 ml of 9.8% solution of hydroxypropyl-β-cyclodextrin, 70-80 degree centigrade

## CO[C@@H]1C[C@H](O[C@H]2CC[C@@]3(C)[C@H](CC[C@@H]4[C@@H]3CC[C@]3(C)[C@@H](C5=CC(=O)OC5)CC[C@]43O)C2)O[C@H](C)[C@@H]1O [Odoroside-A, Odoroside A]
[1]; [12]
  amount dissolved: 100 mg

## C[C@@H]1O[C@@H](O[C@H]2C[C@@H](O)[C@]3(CO)[C@H]4[C@H](O)C[C@]5(C)[C@@H](C6=CC(=O)OC6)CC[C@]5(O)[C@@H]4CC[C@]3(O)C2)[C@H](O)[C@H](O)[C@H]1O [Ouabain]
[2]
  induction of apoptosis: induce apoptosis

## C[C@@H]1O[C@@H](O[C@@H]2C=C3CC[C@@H]4[C@H](CC[C@]5(C)[C@@H](c6ccc(=O)oc6)CC[C@]45O)[C@@]3(C)CC2)[C@H](O)[C@H](O)[C@H]1O [Proscillaridin-A, Proscillaridin A, reference compound]
[3]
  selective toxicity solid vs hematological tumor cells: no selective toxicity
[4]
  bioavailability: 20-30%
[1]; in 1 ml of 2% solution of hydroxypropyl-β-cyclodextrin
  amount effectively solubilized: 1 mg
[1]; [13]
  amount effectively solubilized: 1 mg
[1]; [14]
  amount effectively solubilized: 100 mg
[1]; [12]
  amount dissolved: 100 mg

## CO[C@@H]1C[C@H](O[C@H]2CC[C@@]3(C)[C@H](CC[C@@]45O[C@@]46CC[C@H](C4=CC(=O)OC4)[C@@]6(C)CC[C@H]35)C2)O[C@H](C)[C@@H]1O [adynerin]
[5]
  anti-cancer activity: significant anti-cancer activities

## C[C@H]1O[C@@H](O[C@H]2[C@@H](O)C[C@H](O[C@H]3[C@@H](O)C[C@H](O[C@H]4CC[C@@]5(C)[C@H](CC[C@@H]6[C@@H]5CC[C@]5(C)[C@@H](C7=CC(=O)OC7)CC[C@]65O)C4)O[C@@H]3C)O[C@@H]2C)C[C@H](O)[C@@H]1O [digitoxin]
[3]
  selective toxicity solid vs hematological tumor cells: selective toxicity against solid tumor cells
[6]
  growth and apoptosis: inhibits growth and induce apoptosis

## C[C@H]1O[C@@H](O[C@H]2[C@@H](O)C[C@H](O[C@H]3[C@@H](O)C[C@H](O[C@H]4CC[C@@]5(C)[C@H](CC[C@@H]6[C@@H]5C[C@@H](O)[C@]5(C)[C@@H](C7=CC(=O)OC7)CC[C@]65O)C4)O[C@@H]3C)O[C@@H]2C)C[C@H](O)[C@@H]1O [digoxin]
[3]
  selective toxicity solid vs hematological tumor cells: selective toxicity against solid tumor cells
[2]
  induction of apoptosis: induce apoptosis
[6]
  growth and apoptosis: inhibits growth and induce apoptosis
[7]
  increase of plasma levels: approximately 5.4 fold

## CO[C@H]1C[C@H](O[C@H]2CC[C@@]3(C)[C@H](CC[C@@H]4[C@@H]3CC[C@]3(C)[C@@H](C5=CC(=O)OC5)[C@@H](OC(C)=O)C[C@]43O)C2)O[C@@H](C)[C@@H]1O [oleandrin, 16b-acetoxy-3b-[(2,6 dideoxy-3-0-methyl-a2-L-arabino-hexopyranosyl)oxy]-14-hydroxy-5β, 14β-card-20(22)-enolide]
[8]
  dissolution in water: Appreciable quantities of compound remained out of solution
AP-1
  AP-1 activation: blocked
[9]
  time of elimination from the body: one to two
[2]
  induction of apoptosis: induce apoptosis
Human cancer cells
  cell killing: able to induce cell killing
NF-κB
  TNF-induced activation of NF-κB: blocked
[5]
  anti-cancer activity: significant anti-cancer activities
[10]
  inhibition of FGF-2 release: 45.7%
[11]
  inhibition of FGF-2 release: 49.9%
[1]; [13]
  amount effectively solubilized: 1 mg
[1]; in 1 ml of 5% solution of hydroxypropyl-β-cyclodextrin
  amount effectively solubilized: 1 mg
[1]; [14]
  amount effectively solubilized: 100 mg
[1]; in 100 mL of water containing 2.5 grams of hydroxypropyl-β-cyclodextrin (called 2% solution)
  amount dissolved: 100 mg

## C[C@H]1[C@H](C)CC[C@]2(C(=O)O)CC[C@]3(C)C(=CC[C@@H]4[C@@]5(C)CC[C@H](O)C(C)(C)[C@@H]5CC[C@]43C)[C@H]12 [ursolic acid]
[5]
  anti-cancer activity: significant anti-cancer activities
